Assay: Stability of Tc-99m labeled compound, labeling purity by HPLC
Type: physicochemical
Method: 2 mL of Tc-99m was added dropwise to a lyophilized vial including 0.1 mg of GP-104, 15 μg of SnCl2, and 10 μg of cysteine, the vial was allowed to stand at room temperature for 10 minutes, and the reaction was terminated by adjusting pH to 7 using a NaOH solution. Labeling purity was confirmed to be 93.21% by HPLC (analysis conditions: Luna C18 250×4.6 mm, phosphate buffer:acetonitrile (100:0, 0 to 5 minutes; 80:20, 5 to 10 minutes; 80:20, 17 minutes; 100:0, 17.1 minutes). 100:0. 20 min), 1.0 mL/min, UV=280 nm).
In order to confirm the effect of cysteine addition after the reaction, the following experiment was performed: 0.1 mg of GP-104 was dissolved in water for injection, the pH was adjusted to about 3.5 when 10 μL of SnCl2 (1.5 mg/mL) and 2 mL of Tc-99m were added thereto, and the resulting mixture was allowed to stand at room temperature for 10 minutes. The reaction was terminated by adjusting the pH to 7 using a NaOH solution and 10 μL of cysteine (1.0 mg/mL). Labeling purity was confirmed to be 91.4% using HPLC in the same manner as in Example 2-7.
After 0.1 mg of GP-104 was dissolved in water for injection, pH was adjusted to about 3.5 and the resulting solution was allowed to stand at room temperature for 10 minutes when 10 μL of SnCl2 (1.5 mg/mL), 10 μL of cysteine (1.0 mg/mL) and 2 mL of Tc-99m were added thereto, and the reaction was terminated by adjusting the pH to 7 using a NaOH solution. Labeling purity was confirmed to be 94.84% using HPLC in the same manner as in Example 2-7.
HCl and NaOH was additionally added dropwise to the solution of Example 2-8 to perform a stability evaluation by adjusting the final pH of the solution to acidic (pH 5.5) and basic (pH 8.5) conditions, and labeling purity was confirmed using HPLC in the same manner as in Example 2-7.
HCl and NaOH was additionally added dropwise to the solution of Example 2-9 to perform a stability evaluation by adjusting the final pH of the solution to acidic (pH 5.5) and basic (pH 8.5) conditions, and labeling purity was confirmed using HPLC in the same manner as in Example 2-7.
HCl and NaOH was additionally added dropwise to the solution of Example 2-10 to perform a stability evaluation by adjusting the final pH of the solution to acidic (pH 5.5) and basic (pH 8.5) conditions, and labeling purity was confirmed using HPLC in the same manner as in Example 2-7.
0.1 mg of GP-105 was dissolved in water for injection, the pH was adjusted to about 3.5 when 10 μL of SnCl2 (1.5 mg/mL) and 2 mL of Tc-99m were added thereto, and the resulting mixture was allowed to stand at room temperature for 10 minutes. The reaction was terminated by adjusting the pH to 7 using a NaOH solution and 10 μL of cysteine (1.0 mg/mL). Labeling purity was confirmed to be 98.1% using HPLC in the same manner as in Example 2-7.
HCl and NaOH was additionally added dropwise to the solution of Example 2-12 to perform a stability evaluation by adjusting the final pH of the solution to acidic (pH 5.5) and basic (pH 8.5) conditions, and labeling purity was confirmed using HPLC in the same manner as in Example 2-7.
HCl and NaOH was additionally added dropwise to the solution of Example 2-13 to perform a stability evaluation by adjusting the final pH of the solution to acidic (pH 5.5) and basic (pH 8.5) conditions, and labeling purity was confirmed using HPLC in the same manner as in Example 2-7.
HCl and NaOH was additionally added dropwise to the solution of Example 2-14 to perform a stability evaluation by adjusting the final pH of the solution to acidic (pH 5.5) and basic (pH 8.5) conditions, and labeling purity was confirmed using HPLC in the same manner as in Example 2-7.

- radiochemical purity (HPLC) (Ex 4-3, addition of cysteine after reaction, NaOH mixed, 0 hour): 98.06%
- radiochemical purity (HPLC) (Ex 4-3, addition of cysteine after reaction, NaOH mixed, 1 hour): 95.17%
- radiochemical purity (HPLC) (Ex 4-3, addition of cysteine after reaction, NaOH mixed, 2 hours): 94.14%
- radiochemical purity (HPLC) (Ex 4-3, addition of cysteine after reaction, NaOH mixed, 3 hours): 91.91%
- radiochemical purity (HPLC) (Ex 4-3, addition of cysteine after reaction, NaOH mixed, 4 hours): 89.00%
- radiochemical purity (HPLC) (Ex 4-3, addition of cysteine after reaction, NaOH separately, 0 hour): 99.39%
- radiochemical purity (HPLC) (Ex 4-3, addition of cysteine after reaction, NaOH separately, 1 hour): 99.04%
- radiochemical purity (HPLC) (Ex 4-3, addition of cysteine after reaction, NaOH separately, 2 hours): 97.02%
- radiochemical purity (HPLC) (Ex 4-3, addition of cysteine after reaction, NaOH separately, 3 hours): 91.14%
- radiochemical purity (HPLC) (Ex 4-3, addition of cysteine after reaction, NaOH separately, 4 hours): 66.87%
- radiochemical purity (HPLC) (solution of Example 2-12 (165 nmol cysteine), pH 5.5, 0 hr): 100%
- radiochemical purity (HPLC) (solution of Example 2-12 (165 nmol cysteine), pH 5.5, 2 hr): 85.49%
- radiochemical purity (HPLC) (solution of Example 2-12 (165 nmol cysteine), pH 5.5, 4 hr): 82.11%
- radiochemical purity (HPLC) (solution of Example 2-12 (165 nmol cysteine), pH 7, 0 hr): 100%
- radiochemical purity (HPLC) (solution of Example 2-12 (165 nmol cysteine), pH 7, 2 hr): 94.88%
- radiochemical purity (HPLC) (solution of Example 2-12 (165 nmol cysteine), pH 7, 4 hr): 85.55%
- radiochemical purity (HPLC) (solution of Example 2-12 (165 nmol cysteine), pH 8.5, 0 hr): 100%
- radiochemical purity (HPLC) (solution of Example 2-12 (165 nmol cysteine), pH 8.5, 2 hr): 50.64%
- radiochemical purity (HPLC) (solution of Example 2-12 (165 nmol cysteine), pH 8.5, 4 hr): 23.98%
- radiochemical purity (HPLC) (solution of Example 2-13 (82.5 nmol cysteine + 82.5 nmol VB1), pH 5.5, 0 hr): 100%
- radiochemical purity (HPLC) (solution of Example 2-13 (82.5 nmol cysteine + 82.5 nmol VB1), pH 5.5, 2 hr): 100%
- radiochemical purity (HPLC) (solution of Example 2-13 (82.5 nmol cysteine + 82.5 nmol VB1), pH 5.5, 4 hr): 98.63%
- radiochemical purity (HPLC) (solution of Example 2-13 (82.5 nmol cysteine + 82.5 nmol VB1), pH 7, 0 hr): 100%
- radiochemical purity (HPLC) (solution of Example 2-13 (82.5 nmol cysteine + 82.5 nmol VB1), pH 7, 2 hr): 100%
- radiochemical purity (HPLC) (solution of Example 2-13 (82.5 nmol cysteine + 82.5 nmol VB1), pH 7, 4 hr): 94.88%
- radiochemical purity (HPLC) (solution of Example 2-13 (82.5 nmol cysteine + 82.5 nmol VB1), pH 8.5, 0 hr): 100%
- radiochemical purity (HPLC) (solution of Example 2-13 (82.5 nmol cysteine + 82.5 nmol VB1), pH 8.5, 2 hr): 94.13%
- radiochemical purity (HPLC) (solution of Example 2-13 (82.5 nmol cysteine + 82.5 nmol VB1), pH 8.5, 4 hr): 90.17%
Structure (SMILES): O=C(O)C[C@H](NC(=O)[C@@H]1CCCN(C(=O)CCC2CCNCC2)C1)c1cncc(OCCNC(=O)CN2CC(=O)[O][99Tc-]3([O]C(=O)C2)[O]C(=O)CN(CC(=O)NCCOc2cncc([C@H](CC(=O)O)NC(=O)[C@@H]4CCCN(C(=O)CCC5CCNCC5)C4)c2)CC(=O)[O]3)c1 [[Tc-99m]GP-105]

Reference: patent US12527886B2, “Radiopharmaceuticals and composition for thrombus imaging” (THE ASAN FOUNDATION, priority 2020, dated 2026)
